# Results reported in patent publication US10160755B2 (Plexxikon Inc., priority 2015, dated 2018).
# Biological target: c-Kit (Homo sapiens, UniProt P10721)
# Test: c-Kit biochemical assay (per US 2007/0032519)
# Summary of the method: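 Biochemical kinase inhibition run per US 2007/0032519; values reported as binned IC50 ranges (0.0001–1 μM, 1–10 μM, 10–200 μM).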
# Sequence of c-Kit (P10721 26-976): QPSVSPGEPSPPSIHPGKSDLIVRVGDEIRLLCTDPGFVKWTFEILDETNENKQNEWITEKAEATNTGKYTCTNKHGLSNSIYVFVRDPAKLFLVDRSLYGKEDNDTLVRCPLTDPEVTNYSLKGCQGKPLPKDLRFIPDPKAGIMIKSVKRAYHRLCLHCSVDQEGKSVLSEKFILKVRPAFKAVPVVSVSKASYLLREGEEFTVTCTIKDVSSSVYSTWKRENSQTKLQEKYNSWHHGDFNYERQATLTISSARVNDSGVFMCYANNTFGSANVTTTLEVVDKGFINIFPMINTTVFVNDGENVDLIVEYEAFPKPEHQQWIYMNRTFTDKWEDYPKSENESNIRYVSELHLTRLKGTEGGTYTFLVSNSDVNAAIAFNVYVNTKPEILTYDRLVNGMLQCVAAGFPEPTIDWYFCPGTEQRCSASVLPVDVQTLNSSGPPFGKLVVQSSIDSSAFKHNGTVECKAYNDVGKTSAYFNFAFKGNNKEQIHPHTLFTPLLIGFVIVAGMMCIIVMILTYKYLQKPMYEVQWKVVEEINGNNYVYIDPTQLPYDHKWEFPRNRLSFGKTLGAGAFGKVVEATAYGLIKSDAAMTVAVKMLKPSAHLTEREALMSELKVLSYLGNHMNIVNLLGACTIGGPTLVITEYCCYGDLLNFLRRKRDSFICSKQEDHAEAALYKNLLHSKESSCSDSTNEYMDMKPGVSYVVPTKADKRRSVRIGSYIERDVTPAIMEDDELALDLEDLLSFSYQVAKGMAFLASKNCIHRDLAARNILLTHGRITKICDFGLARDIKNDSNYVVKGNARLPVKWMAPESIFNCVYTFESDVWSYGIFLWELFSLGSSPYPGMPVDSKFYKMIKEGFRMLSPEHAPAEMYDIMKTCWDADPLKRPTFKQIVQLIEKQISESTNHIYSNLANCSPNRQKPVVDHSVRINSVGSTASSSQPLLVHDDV
row,Compound,IC50
1,"CC(C)(C)n1cnc2ccc(-c3c[nH]c4ncc(-c5cnc(C#N)nc5)nc34)cc21 [P-352, 5-[7-(3-tert-butylbenzimidazol-5-yl)-5H-pyrrolo[2,3-b]pyrazin-2-yl]pyrimidine-2-carbonitrile]",10 to 200 µM
2,"COc1ncc(-c2cnc3[nH]cc(-c4ccc5ncn(C(C)(C)C)c5c4)c3n2)cc1C#N [P-405, 5-[7-(3-tert-butylbenzimidazol-5-yl)-5H-pyrrolo[2,3-b]pyrazin-2-yl]-2-methoxy-pyridine-3-carbonitrile]",10 to 200 µM
3,"CC(C)(C)n1cnc2ccc(-c3c[nH]c4ncc(-c5cnc(F)c(F)c5)nc34)cc21 [P-390, 7-(3-tert-butylbenzimidazol-5-yl)-2-(5,6-difluoro-3-pyridyl)-5H-pyrrolo[2,3-b]pyrazine]",10 to 200 µM
4,"COc1cnc2[nH]cc(-c3ccc4ncn(-c5ccccc5)c4c3)c2c1 [P-068, 5-methoxy-3-(3-phenylbenzimidazol-5-yl)-1H-pyrrolo[2,3-b]pyridine]",10 to 200 µM
5,"CC(C)(C)n1cnc2ccc(-c3c[nH]c4ncc(-c5ccnc(C#N)c5)nc34)cc21 [P-301, 4-[7-(3-tert-butylbenzimidazol-5-yl)-5H-pyrrolo[2,3-b]pyrazin-2-yl]pyridine-2-carbonitrile]",10 to 200 µM

# Further lines, results first:
row,IC50,Compound
1,1 to 10 µM,"COc1cnc2[nH]cc(-c3ccc4ncn(C5CCC5)c4c3)c2c1 [P-061, 1-cyclobutyl-6-(5-methoxy-1H-pyrrolo[2,3-b]pyridin-3-yl)benzimidazole]"
2,1 to 10 µM,"COc1cnc2[nH]cc(-c3ccc4ncn(C(C)(C)C)c4c3)c2c1 [P-074, 1-tert-butyl-6-(5-methoxy-1H-pyrrolo[2,3-b]pyridin-3-yl)benzimidazole]"
3,0.0001 to 1 µM,"Cc1ccc(-c2cnc3[nH]cc(-c4ccc5ncn(C(C)(C)C)c5c4)c3n2)cn1 [P-388, 7-(3-tert-butylbenzimidazol-5-yl)-2-(6-methyl-3-pyridyl)-5H-pyrrolo[2,3-b]pyrazine]"
4,1 to 10 µM,"CC(C)(C)n1cnc2ccc(-c3c[nH]c4ncc(-c5cnc(O)nc5)nc34)cc21 [P-363, 5-[7-(3-tert-butylbenzimidazol-5-yl)-5H-pyrrolo[2,3-b]pyrazin-2-yl]pyrimidin-2-ol]"
5,1 to 10 µM,"CC(C)(O)c1ncc(-c2cnc3[nH]cc(-c4ccc5ncn(C(C)(C)C)c5c4)c3n2)cn1 [P-380, 2-[5-[7-(3-tert-butylbenzimidazol-5-yl)-5H-pyrrolo[2,3-b]pyrazin-2-yl]pyrimidin-2-yl]propan-2-ol]"
